Test results: patent US10150760B2, “Compounds for use in preparing heterocyclic triazole agonists of the APJ receptor” (AMGEN INC., priority 2016, dated 2018)

Biological target: human APJ receptor (Homo sapiens (Human), UniProt P35414)
Assay: [35S]GTPγS binding assay on membranes from CHO cells stably expressing human APJ receptor
Assay type: biochemical
Conditions: read-out: Activity hAPJ SPA EC50 IP
How it was run: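 Agonist-driven [35S]GTPγS (0.2 nM) binding was measured over 90 min at room temperature on human APJ-expressing CHO membranes with bead capture, in buffer containing 3 μM GDP, 200 mM NaCl and 5 mM MgCl2 (pH 7.5). Excess unlabelled GTPγS (100 μM) gave nonspecific signal; EC50 from non-linear fits.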

Chain of human APJ receptor (P35414 whole entry): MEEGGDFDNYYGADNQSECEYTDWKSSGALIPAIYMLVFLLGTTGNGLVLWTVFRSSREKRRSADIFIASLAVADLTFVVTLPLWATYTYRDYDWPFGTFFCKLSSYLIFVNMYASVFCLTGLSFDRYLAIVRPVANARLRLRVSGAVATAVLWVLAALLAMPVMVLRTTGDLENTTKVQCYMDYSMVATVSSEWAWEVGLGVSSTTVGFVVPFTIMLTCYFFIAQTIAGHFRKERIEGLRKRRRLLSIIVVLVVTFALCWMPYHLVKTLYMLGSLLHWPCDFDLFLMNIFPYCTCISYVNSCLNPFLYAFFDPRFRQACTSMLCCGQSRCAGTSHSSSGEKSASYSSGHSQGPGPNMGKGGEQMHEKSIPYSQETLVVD

Molecule: COc1cccc(OC)c1-n1c(NS(=O)(=O)[C@@H](C)[C@H](OC)c2ncc(Cl)cn2)nnc1[C@H]1CC(=O)N(C)C1 (single isomer, unassigned) [Example 293.0, (1R,2S)-1-(5-chloropyrimidin-2-yl)-N-(4-(2,6-dimethoxyphenyl)-5-((R)-1-methyl-5-oxopyrrolidin-3-yl)-4H-1,2,4-triazol-3-yl)-1-methoxypropane-2-sulfonamide or (1R,2S)-1-(5-chloropyrimidin-2-yl)-N-(4-(2,6-dimethoxyphenyl)-5-((S)-1-methyl-5-oxopyrrolidin-3-yl)-4H-1,2,4-triazol-3-yl)-1-methoxypropane-2-sulfonamide]
- EC50: 100 nM

Molecule: COc1cccc(OC)c1-n1c(NS(=O)(=O)CCc2ccc(Cl)cc2)nnc1[C@H]1CCOC1 (single isomer, unassigned) [Example 9.0, (R)-2-(4-Chlorophenyl)-N-(4-(2,6-dimethoxyphenyl)-5-(tetrahydrofuran-3-yl)-4H-1,2,4-triazol-3-yl)ethanesulfonamide or (S)-2-(4-chlorophenyl)-N-(4-(2,6-dimethoxyphenyl)-5-(tetrahydrofuran-3-yl)-4H-1,2,4-triazol-3-yl)ethanesulfonamide]
- EC50: 210 nM

Molecule: COCC(COC)n1c(NS(=O)(=O)[C@@H](C)[C@H](OC)c2ncc(Cl)cn2)nnc1[C@@H]1COCCO1 (single isomer, unassigned) [Example 250.0, (1R,2S)-1-(5-chloro-2-pyrimidinyl)-N-(4-(1,3-dimethoxy-2-propanyl)-5-((2R)-1,4-dioxan-2-yl)-4H-1,2,4-triazol-3-yl)-1-methoxy-2-propanesulfonamide or (1R,2S)-1-(5-chloro-2-pyrimidinyl)-N-(4-(1,3-dimethoxy-2-propanyl)-5-((2S)-1,4-dioxan-2-yl)-4H-1,2,4-triazol-3-yl)-1-methoxy-2-propanesulfonamide]
- EC50: 48 nM

Molecule: COc1cccc(OC)c1-n1c(NS(=O)(=O)[C@@H](C)[C@H](C)c2ncc(Cl)cn2)nnc1[C@@H]1COC(C)(C)C1 (single isomer, unassigned) [Example 394.0, (2S,3R)-3-(5-chloro-2-pyrimidinyl)-N-(4-(2,6-dimethoxyphenyl)-5-((3R)-5,5-dimethyltetrahydro-3-furanyl)-4H-1,2,4-triazol-3-yl)-2-butanesulfonamide or (2S,3R)-3-(5-chloro-2-pyrimidinyl)-N-(4-(2,6-dimethoxyphenyl)-5-((3S)-5,5-dimethyltetrahydro-3-furanyl)-4H-1,2,4-triazol-3-yl)-2-butanesulfonamide]
- EC50: 20 nM

Molecule: COc1cccc(OC)c1-n1c(NS(=O)(=O)[C@@H](C)[C@H](C)c2ncc(C)cn2)nnc1[C@H]1CCCCO1 (single isomer, unassigned) [Example 85.0, (2S,3R)-N-(4-(2,6-dimethoxyphenyl)-5-((S)-tetrahydro-2H-pyran-2-yl)-4H-1,2,4-triazol-3-yl)-3-(5-methylpyrimidin-2-yl)butane-2-sulfonamide or (2S,3R)-N-(4-(2,6-dimethoxyphenyl)-5-((R)-tetrahydro-2H-pyran-2-yl)-4H-1,2,4-triazol-3-yl)-3-(5-methylpyrimidin-2-yl)butane-2-sulfonamide]
- EC50: 9.6 nM

Molecule: COc1ncnc(OC)c1-n1c(NS(=O)(=O)[C@@H](C)[C@H](C)c2ncc(F)cn2)nnc1[C@@H]1COCCO1 (single isomer, unassigned) [Example 277.0, (2S,3R)-N-(4-(4,6-dimethoxypyrimidin-5-yl)-5-((R)-1,4-dioxan-2-yl)-4H-1,2,4-triazol-3-yl)-3-(5-fluoropyrimidin-2-yl)butane-2-sulfonamide or (2S,3R)-N-(4-(4,6-dimethoxypyrimidin-5-yl)-5-((S)-1,4-dioxan-2-yl)-4H-1,2,4-triazol-3-yl)-3-(5-fluoropyrimidin-2-yl)butane-2-sulfonamide]
- EC50: 23 nM

Molecule: COc1cccc(OC)c1-n1c(NS(=O)(=O)[C@@H](C)[C@H](C)c2ncc(Cl)cn2)nnc1[C@H]1OCC[C@H]1C (single isomer, unassigned) [Example 68.0, (2S,3R)-3-(5-chloropyrimidin-2-yl)-N-(4-(2,6-dimethoxyphenyl)-5-((2S,3R)-3-methyltetrahydrofuran-2-yl)-4H-1,2,4-triazol-3-yl)butane-2-sulfonamide or (2S,3R)-3-(5-chloropyrimidin-2-yl)-N-(4-(2,6-dimethoxyphenyl)-5-((2R,3S)-3-methyltetrahydrofuran-2-yl)-4H-1,2,4-triazol-3-yl)butane-2-sulfonamide]
- EC50: 14 nM

Molecule: (1R,2S)-N-(4-(2,6-dimethoxyphenyl)-5-((S)-tetrahydro-2H-pyran-3-yl)-4H-1,2,4-triazol-3-yl)-1-hydroxy-1-(5-methylpyrimidin-2-yl)propane-2-sulfonamide or (1R,2S)-N-(4-(2,6-dimethoxyphenyl)-5-((R)-tetrahydro-2H-pyran-3-yl)-4H-1,2,4-triazol-3-yl)-1-hydroxy-1-(5-methylpyrimidin-2-yl)propane-2-sulfonamde [Example 194.0]
- EC50: 20 nM

Molecule: (1R,2S)-N-(5-((R)-2,3-dihydrobenzofuran-3-yl)-4-(2,6-dimethoxyphenyl)-4H-1,2,4-triazol-3-yl)-1-methoxy-1-(5-methylpyrimidin-2-yl)propane-2-sulfonamide or (1R,2S)-N-(5-((S)-2,3-dihydrobenzofuran-3-yl)-4-(2,6-dimethoxyphenyl)-4H-1,2,4-triazol-3-yl)-1-methoxy-1-(5-methylpyrimidin-2-yl)propane-2-sulfonamide [Example 238.0]
- EC50: 810 nM

Molecule: COc1cccc(OC)c1-n1c(NS(=O)(=O)[C@@H](C)[C@H](C)c2ncc(C#N)cn2)nnc1[C@@H]1CCCO1 (single isomer, unassigned) [Example 24.0, (2S,3R)-3-(5-Cyano-2-pyrimidinyl)-N-(4-(2,6-dimethoxyphenyl)-5-((2S)-tetrahydro-2-furanyl)-4H-1,2,4-triazol-3-yl)-2-butanesulfonamide or (2S,3R)-3-(5-cyano-2-pyrimidinyl)-N-(4-(2,6-dimethoxyphenyl)-5-((2R)-tetrahydro-2-furanyl)-4H-1,2,4-triazol-3-yl)-2-butanesulfonamide]
- EC50: 4.5 nM

Molecule: COc1cnc([C@@H](C)[C@H](C)S(=O)(=O)Nc2nnc([C@@H]3COCCO3)n2-c2c(OC)cccc2OC)nc1 (single isomer, unassigned) [Example 176.0, (2S,3R)-N-(4-(2,6-dimethoxyphenyl)-5-((2R)-1,4-dioxan-2-yl)-4H-1,2,4-triazol-3-yl)-3-(5-methoxy-2-pyrimidinyl)-2-butanesulfonamide or (2S,3R)-N-(4-(2,6-dimethoxyphenyl)-5-((2S)-1,4-dioxan-2-yl)-4H-1,2,4-triazol-3-yl)-3-(5-methoxy-2-pyrimidinyl)-2-butanesulfonamide]
- EC50: 34 nM

Molecule: COc1ncnc(OC)c1-n1c(NS(=O)(=O)[C@@H](C)[C@H](C)c2ncc(F)cn2)nnc1[C@@H]1COCCO1 (single isomer, unassigned) [Example 278.0, (2S,3R)-N-(4-(4,6-dimethoxypyrimidin-5-yl)-5-((R)-1,4-dioxan-2-yl)-4H-1,2,4-triazol-3-yl)-3-(5-fluoropyrimidin-2-yl)butane-2-sulfonamide or (2S,3R)-N-(4-(4,6-dimethoxypyrimidin-5-yl)-5-((S)-1,4-dioxan-2-yl)-4H-1,2,4-triazol-3-yl)-3-(5-fluoropyrimidin-2-yl)butane-2-sulfonamide]
- EC50: 510 nM

Molecule: COc1cccc(OC)c1-n1c(NS(=O)(=O)[C@@H](C)[C@@H](OC(C)C)c2ncc(C)cn2)nnc1[C@H]1CCCOC1 (single isomer, unassigned) [Example 137.0, (1S,2S)-N-(4-(2,6-dimethoxyphenyl)-5-((R)-tetrahydro-2H-pyran-3-yl)-4H-1,2,4-triazol-3-yl)-1-isopropoxy-1-(5-methylpyrimidin-2-yl)propane-2-sulfonamide or (1S,2S)-N-(4-(2,6-dimethoxyphenyl)-5-((S)-tetrahydro-2H-pyran-3-yl)-4H-1,2,4-triazol-3-yl)-1-isopropoxy-1-(5-methylpyrimidin-2-yl)propane-2-sulfonamide]
- EC50: 4.8 nM

Molecule: (1S,2S)-N-(4-(4,6-dimethoxypyrimidin-5-yl)-5-((R)-tetrahydrofuran-3-yl)-4H-1,2,4-triazol-3-yl)-1-isopropoxy-1-(5-methylpyridin-2-yl)propane-2-sulfonamide or (1S,2S)-N-(4-(4,6-dimethoxypyrimidin-5-yl)-5-((S)-tetrahydrofuran-3-yl)-4H-1,2,4-triazol-3-yl)-1-isopropoxy-1-(5-methylpyridin-2-yl)propane-2-sulfonamide [Example 324.0]
- EC50: 380 nM

Molecule: (1R,2S)-1-(5-chloro-2-pyrimidinyl)-N-(4-(1,3-dimethoxy-2-propanyl)-5-((2R)-5,5-dimethyltetrahydro-2-furanyl)-4H-1,2,4-triazol-3-yl)-1-methoxy-2-propanesulfonamide or (1R,2S)-1-(5-chloro-2-pyrimidinyl)-N-(4-(1,3-dimethoxy-2-propanyl)-5-((2S)-5,5-dimethyltetrahydro-2-furanyl)-4H-1,2,4-triazol-3-yl)-1-methoxy-2-propanesulfonamide [Example 308.0]
- EC50: 410 nM

Molecule: (1S,2S)-1-(5-chloro-2-pyrimidinyl)-N-(4-(1,3-dimethoxy-2-propanyl)-5-((2R,5R)-5-methyltetrahydro-2-furanyl)-4H-1,2,4-triazol-3-yl)-1-(2-propanyloxy)-2-propanesulfonamide or (1S,2S)-1-(5-chloro-2-pyrimidinyl)-N-(4-(1,3-dimethoxy-2-propanyl)-5-((2S,5S)-5-methyltetrahydro-2-furanyl)-4H-1,2,4-triazol-3-yl)-1-(2-propanyloxy)-2-propanesulfonamide [Example 355.0]
- EC50: 1.2 nM
